Data reported in US8173626B2, “Methods, dosing regimens and medications using anti-progestational agents for the treatment of disorders” (Danco Laboratories LLC, priority 2006, dated 2012).

How the values were obtained:
uterine leiomyomata [1] = experiment: Clinical study of 2.5 mg mifepristone for the treatment of uterine leiomyomata (Example 1); assay type: in vivo, human; settings: 2.5 mg daily, three months
Experimental: The study was conducted at a single site in Rochester, N.Y. Subjects: Inclusion criteria for the study included that subjects be (i) female; (ii) 18 years of age to premenopausal; and (iii) willing and able to give informed consent and comply with study requirements; and have (i) at least moderate symptoms of menorrhagia and/or pelvic pain/pressure; (ii) a total uterine volume greater than or equal to 160 cubic centimeters (cc) by ultrasound measurement; (iii) at least one leiomyomata ≧2.5 cm in size; (iv) a score of equal to or greater than 39 on the Uterine Fibroid Symptom and Quality of Life Scale; (v) declined standard treatment options for symptomatic leiomyomata; and (vi) agreed to use a barrier method (condoms, diaphragms) or other effective non-hormonal method of contraception (abstinence, sterilization) throughout participation in the study. Exclusion criteria for the study included: (i) current or planned pregnancy during the study period; (ii) menopausal, as indicated by follicle-stimulating hormone (FSH) level of the reference laboratory; (iii) currently breast-feeding; (iv) untreated abnormal pap smear; (v) presence of conditions other than leiomyomata contributing to pain and/or bleeding; (vi) hemoglobin […]; (vii) presence of […] masses or tenderness requiring further evaluation or surgery; (viii) grade III or IV hydronephrosis by ultrasound; (ix) severe, active mental disorder; […] (xi) current or recent (within the last three months) use of oral systemic corticosteroids, hormones (including estrogens, progestins, oral contraceptives), danazol, anticoagulants, or herbal or botanical supplements with possible hormonal effects; (xii) use within the past six months of GnRH analogs or Depo-Provera®; and (xiii) current or planned use during the study of any of the following medications or products: ketoconazole, itraconazole, erythromycin, grapefruit juice, rifampin, St. John's Wort, phenytoin, phenobarbital or carbamazepine Primary recruitment of subjects occurred through direct advertising and physician referrals. Women who were successfully prescreened were contacted by telephone and invited to an screening session/orientation. Prospective subjects were provided with a verbal and written description of the study and requirements for participation. Written informed consent was obtained from each participant at the screening session/orientation, and medical record releases were obtained and reviewed by the project gynecologist. Participants who gave consent were assigned a study ID number and asked to proceed further with the screening session. […] During the screening session the following information was collected: Physical Examination: Height, weight, blood pressure, pulse readings, examination of the breasts, heart, lungs, abdomen, and complete gynecologic examination including bi-manual at screening session/orientation (baseline). Height, weight, blood pressure, pulse readings and examination of the breasts. Blood samples: Negative pregnancy test and normal liver function testing (ALT, AST), hemoglobin and FSH levels. Ultrasonography: All subjects underwent abdominal and vaginal ultrasonography and uterine artery and leiomyomata blood flow assessment. Specifically, uterine leiomyomata size was assessed by transabdominal and/or transvaginal sonography by a single, certified and experienced ultrasonographer. Combined abdominal and vaginal ultrasonography was the standard for assessing leiomyomata size. […]

[2] = tested on: breakthrough uterine bleeding in new starters of DMPA; experiment: Mifepristone for prevention of breakthrough bleeding in new starters of DMPA (Example 9); assay type: in vivo, human; settings: 50 mg capsule every 14 days with DMPA
uterine leiomyomata [3] = experiment: Randomized, double-blinded, placebo-controlled study of mifepristone 5 mg daily for symptomatic uterine leiomyomata (Example 11); assay type: in vivo, human
Source text: The Study and Results are described in […] et al., Obstetrics & Gynecology, 108(6) (2006), hereby incorporated by reference in its entirety. […] Women were excluded if they were pregnant or intended to become pregnant during the next 6 months or had major medical morbidity or severe anemia, active mental illness, elevated liver enzymes, or substance abuse. Participants agreed to use barrier contraception and not to use hormonal or surgical treatments for leiomyomata during the course of the trial. Analgesic use was permitted. […] Secondary measures included global health status (Medical Outcomes 36-item Short Form [SF-36] survey) and global pain (McGill Pain Questionnaire). Each questionnaire was administered at baseline, 1 month, 3 months, and 6 months, except the McGill Pain Questionnaire, which was assessed monthly. Bleeding was assessed by using daily menstrual logs and pictorial bleeding charts. A monthly blood loss index was calculated from menstrual history by assigning values […] to each day of spotting, indicating light, moderate, and heavy flow, respectively, and then summing the results. Monthly assessments of the presence and intensity of likely leiomyoma symptoms (including pelvic pain, pelvic pressure, bladder pressure, urinary frequency, low back pain, rectal pain, and pain with intercourse) and drug adverse effects (including hot flushes, headache, nausea, vomiting, mood swings, diarrhea, decreased libido, weakness, fatigue, and nervousness) were performed with a standardized instrument consisting of 5-point Likert scale items. […] The uterus was measured in three planes and a total volume calculated. The five largest leiomyomata were identified, a volume calculated for each of the leiomyomata, and the results summed. Baseline uterine volume was subtracted from each subsequently measured uterine volume, and volume changes were analyzed. The final analysis was powered to detect a 25-point difference in mean Uterine Fibroid Symptom Quality of Life scores. Differences in Uterine Fibroid Symptom Quality of Life scores, ultrasound measures, bleeding, pain, and other longitudinal measures were assessed by using individual growth curve models. […] Approximate t tests were used to test hypotheses of between-group and within-group differences in outcomes.

uterine leiomyomata [4] = settings: cited from earlier work
[5] = tested on: endometrial receptors and breakthrough bleeding; settings: women on Norplant, mifepristone orally; Cheng et al.; cited from earlier work
[6] = target: glucocorticosteroid receptor (GR) (Homo sapiens, UniProt P04150); settings: cited from earlier work
glucocorticosteroid receptor (GR), sequence (P04150 whole entry): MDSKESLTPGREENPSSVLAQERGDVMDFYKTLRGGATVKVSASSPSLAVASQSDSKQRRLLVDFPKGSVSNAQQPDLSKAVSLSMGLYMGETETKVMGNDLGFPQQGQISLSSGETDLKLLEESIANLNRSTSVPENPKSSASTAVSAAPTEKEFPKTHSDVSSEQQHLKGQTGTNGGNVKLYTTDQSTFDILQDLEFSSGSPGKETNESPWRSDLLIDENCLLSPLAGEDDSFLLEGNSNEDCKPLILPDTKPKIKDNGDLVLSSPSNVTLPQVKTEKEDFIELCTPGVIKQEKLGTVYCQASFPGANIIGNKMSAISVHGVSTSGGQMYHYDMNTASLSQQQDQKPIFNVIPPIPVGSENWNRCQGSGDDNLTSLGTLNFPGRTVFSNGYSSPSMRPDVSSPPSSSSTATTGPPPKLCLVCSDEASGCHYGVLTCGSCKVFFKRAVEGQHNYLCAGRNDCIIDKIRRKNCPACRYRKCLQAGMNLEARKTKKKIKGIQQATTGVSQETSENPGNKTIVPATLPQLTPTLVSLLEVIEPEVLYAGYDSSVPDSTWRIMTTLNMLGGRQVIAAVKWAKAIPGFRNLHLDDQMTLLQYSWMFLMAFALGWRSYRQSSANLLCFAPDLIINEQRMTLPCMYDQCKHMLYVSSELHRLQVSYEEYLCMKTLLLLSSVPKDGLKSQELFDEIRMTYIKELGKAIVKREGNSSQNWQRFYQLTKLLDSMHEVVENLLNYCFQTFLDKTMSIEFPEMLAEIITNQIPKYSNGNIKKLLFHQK

With `CC#C[C@]1(O)CC[C@H]2[C@@H]3CCC4=CC(=O)CCC4=C3[C@@H](c3ccc(N(C)C)cc3)C[C@@]21C` [mifepristone, 17-hydroxy-11-(4-dimethylaminophenyl)-17-(prop-1-ynyl)estra-4,9-dien-3-one] the amenorrhea (uterine leiomyomata [1]) was “all subjects became amenorrheic”, the “mean decrease in leiomyomata volume” value (uterine leiomyomata [1]) was 26% and the “mean decrease in uterine volume” value (uterine leiomyomata [1]) was 19%. For the same compound, the “mean leiomyomata volume (aggregated) after treatment” value (uterine leiomyomata [1]; baseline 187) was 139, the “mean uterine volume after treatment” value (uterine leiomyomata [1]; baseline 795 cc) was 653 cc and the “median percentage days of bleeding” value ([2]; 1232 women-days, placebo 30%, p<0.05, results to date) was 11%. For the same compound, the adverse events ([2]; to date) was “no adverse events have occurred”, the “period in which most of the improvement in symptoms and quality of life occurred” value (uterine leiomyomata [3]; 5 mg daily for 26 weeks, first weeks of treatment) was 8-12 weeks and the SF-36 subscales (uterine leiomyomata [3]; 5 mg daily, 6 months) was “improvements in energy and fatigue, health status change, and pain”. The “endometrial hyperplasia or other significant endometrial pathology” value (uterine leiomyomata [3]; 5 mg daily, 6 months) was “No endometrial hyperplasia or other significant endometrial pathology was observed”, the liver function (uterine leiomyomata [3]; 5 mg daily, 6 months) was “None of the participants showed abnormal liver function” and the “reduction in leiomyoma size vs placebo” value (uterine leiomyomata [3]; 5 mg daily, 6 months) was “statistically significant differences in reduction in leiomyoma size”. For the same compound, the “leiomyoma-specific quality of life and aspects (concern, activities, energy and mood, control, self-consciousness, sexual functioning) vs placebo” value (uterine leiomyomata [3]; 5 mg daily, 6 months, P<0.001 overall) was “Significant improvements”, the “average decrease of uterine volume” value (uterine leiomyomata [3]; 5 mg daily, 6 months, P=0.02, placebo increased 73 mL) was 200 mL and the “pain, McGill Pain Questionnaire” value (uterine leiomyomata [3]; 5 mg daily, 6 months, difference to placebo not statistically significant) was “decreases in pain”. For the same compound, the “mean hemoglobin level after treatment” value (uterine leiomyomata [3]; 5 mg daily, 6 months, from 12.0 g/dL, P<0.001) was 13.5 g/dL, the “potential medication adverse effects” value (uterine leiomyomata [3]; 5 mg daily, 6 months, incidence and severity not statistically different from placebo) was “uncommon” and the tolerability (uterine leiomyomata [3]; 5 mg daily, 6 months, low dropout rate) was “well tolerated”. The bleeding (uterine leiomyomata [3]; 5 mg daily, 6 months, not in placebo group) was “decreased markedly”, the “mean Uterine Fibroid Symptoms Quality of Life increase” value (uterine leiomyomata [3]; 5 mg daily, 6 months, of a possible 100 points, range 0-86, placebo 16.7) was 50.1 points and the “mean Uterine Fibroid Symptoms Quality of Life increase, percent” value (uterine leiomyomata [3]; 5 mg daily, 6 months, placebo 41%) was 135%. The “average decrease of uterine volume adjusted for individual baseline volume” value (uterine leiomyomata [3]; 5 mg daily, 6 months, secondary regression, placebo increased 10%) was 47%, the “cystic glandular dilatation of the endometria” value (uterine leiomyomata [3]; 5 mg daily, 6 months, treated women vs placebo) was “Higher rates” and the “women anemic (hemoglobin below 12.0 g/dL) after six months” value (uterine leiomyomata [3]; 5 mg daily, 2 of 22, baseline 11 of 22 (50%), control 60%) was 9%. For the same compound, the “women amenorrheic by the sixth month” value (uterine leiomyomata [3]; 5 mg daily, 9 of 22 women, none in placebo group) was 41%, the “symptom severity score at 6 months” value (uterine leiomyomata [3]; 5 mg daily, from 67 at baseline, placebo 67 to 50) was 21 and the “monthly reports of symptoms (pelvic pain, pelvic pressure, bladder pressure, urinary frequency, low back pain, rectal pain, pain with intercourse)” value (uterine leiomyomata [3]; 5 mg daily, group difference significant only for pain with intercourse (P<0.05)) was “all showed improvements”. The effectiveness (uterine leiomyomata [4]; 5 mg administered for 6 months, Eisinger et al.) was “confirmed the effectiveness”, the uterine leiomyomata size (uterine leiomyomata [4]; Eisinger et al. 2003) was “reduce uterine leiomyomata size” and the “uterine shrinkage and rates of amenorrhea compared with GnRH agonists” value (uterine leiomyomata [4]; Kettel et al., Murphy et al.) was “equivalent amount of uterine shrinkage and rates of amenorrhea to GnRH agonists”. The “side effects of the lower described doses” value (uterine leiomyomata [4]; doses such as 10 mg) was “increased hot flashes”, the “side effects of the highest described doses” value (uterine leiomyomata [4]; doses such as 50 mg) was “can increase the prevalence and severity of hot flashes, can cause an elevation in hepatic enzymes” and the breakthrough bleeding [5] was “decreased breakthrough bleeding”. For the same compound, the “endometrial estrogen receptor concentration” value [5] was “increased endometrial estrogen receptor concentration”, the “endometrial progesterone receptor concentration” value [5] was “decreased endometrial progesterone receptor concentration” and the “affinity for the glucocorticosteroid receptor (GR)” value [6] was “high affinity”.
